Test results from PMC4149780, “Structural basis for polyspecificity in the POT family of proton-coupled oligopeptide transporters” (EMBO Reports, 2014).

How the values were obtained:
Assay type in all cases: biochemical, Streptococcus thermophilus
PepTSt Asn156Ala (N156A) = assay: proton-driven [3H]-di-Ala uptake competition in reconstituted liposomes, N156A variant
Source text: (§1) PepTSt was reconstituted into Escherichia coli total lipids with egg PC liposomes and assayed using a proton-driven system as previously described.

PepTSt (WT) = assay: proton-driven [3H]-di-Ala uptake competition in reconstituted liposomes, WT transporter
Protocol: as §1
Figure S2. Substrate specificity profile for PepTSt.
‘% residual transport ’ refers to competition for 3H-Ala-Ala uptake in the presence of 10 mM of the cold peptides indicated on the X-axis as a percentage of ‘no competitor’ peptide in a reconstituted proton driven uptake assay.Error bars indicate the standard deviation from three independent

PepTSt Trp427Phe (W427F) = assay: proton-driven [3H]-di-Ala uptake competition in reconstituted liposomes, W427F variant
Source text: as §1

PepTSt Tyr29Phe (Y29F) = assay: proton-driven [3H]-di-Ala uptake competition in reconstituted liposomes, Y29F variant
Source text: as §1

Substance | IC50 (PepTSt Asn156Ala (N156A)) [µM] | IC50 (PepTSt (WT); WT PepTSt in liposomes, proton-driven uptake) [µM] | IC50 (PepTSt Trp427Phe (W427F)) [µM] | IC50 (PepTSt Tyr29Phe (Y29F)) [µM] | % residual transport (competition for 3H-Ala-Ala uptake), result in words (PepTSt (WT); 10 mM cold peptide, reconstituted proton driven uptake assay, WT PepTSt)
L-Ala-L-Ala [Ala-Ala] | 86 | 37 | 35 | 40 | –
tri-glycine | – | – | – | – | not able to compete effectively
